Test results reported in patent publication US20250223626A1, “METHODS OF DIAGNOSING IBS-D AND SELECTION OF IBS-D TREATMENT” (priority 2022, published 2025).
Entries after “also recorded” stand apart in the source; their conditions may differ.

Tests used:
[1] = rats on HFD, 10 days of treatment, compared to controls on HFD (P=0.07)
Protocol: (§1) Therefore, HFD was used to assess the effects of persistent M. smithii elevation on stool consistency (stool wet weights). Sprague-Dawley rats were placed on a HFD (60% energy from fat [D12492; Research Diets, New Brunswick, NJ]) for 7 weeks. […] Stool collections were performed at baseline, after 7 weeks on HFD, and after the 10-day lovastatin/control treatments. Stool wet weights were determined. Stool and small bowel DNAs were extracted at euthanasia and the absolute abundance of M. smithii was determined by qPCR as described previously.

[2] = system: Methanobrevibacter smithii; conditions: rats on HFD, gavaged 10 days with 1.5 mg/ml, compared to controls (water)
Protocol: as §1

CC[C@H](C)C(=O)O[C@H]1C[C@@H](C)C=C2C=C[C@H](C)[C@H](CC[C@@H](O)C[C@@H](O)CC(=O)O)[C@H]21 [lovastatin hydroxyacid]
stool consistency (stool wet weight) [1]: normalization

CC[C@H](C)C(=O)O[C@H]1C[C@@H](C)C=C2C=C[C@H](C)[C@H](CC[C@@H]3C[C@@H](O)CC(=O)O3)[C@H]21 [lovastatin lactone]
M. smithii absolute load in the small bowel [2]: decreased; also recorded: reduction | stool consistency (stool wet weight) [1]: normalization
